Reference: US20100021931A1, “Fluorescence based reporter construct for the direct detection of TGF-beta receptor activation and modulators thereof” (Technische Universitat Dresden, priority 2008, published 2010)

Tests used:
[1] = system: phosphorylated Smad1/5 transcription factors; assay: phospho-SMAD1/5/8 antibody staining of fixed embryos; assay type: in vivo, Danio rerio; details: 30% epiboly
Source text: While at that stage there is not yet a morphological marker for the prospective dorsal or ventral sides of the embryo, BMP pathway activation can be detected by accumulation of phosphorylated Smad1/5 transcription factors in the prospective ventral nuclei. […] As shown in FIG. 3 (top), fluorescence of the TIPF reporter (left) coincides with the region of increased pSmad staining (center).

homozygous tkv mutants = assay: Rescue of tkv mutant flies by the ubiquitin-promoter reporter transgene; assay type: in vivo, Drosophila; details: expressed from the ubiquitin promoter in transgenic flies
Source text: Using P-element mediated transgenesis with the plasmids described above transgenic fly lines were generated in a w^1118 background expressing the TIPF fusion protein under control of the ubiquitously expressed Ubiquitin promoter or in a tissue specific manner from the UAS promotor. For both transgenic construct insertions on all three major chromosomes were obtained. Insertions on the X chromosome were balanced with FM6 w^−, 2nd chromosome insertion were balanced with CyO and 3rd chromosomal insertions with TM3, Sb.

[2] = system: zebrafish BMP receptor ALK3; assay: Zebrafish ALK3 reporter in zebrafish assays according to example 1; assay type: in vivo; details: assays as in example 1
zebrafish BMP receptor ALK3, sequence (as listed by the source): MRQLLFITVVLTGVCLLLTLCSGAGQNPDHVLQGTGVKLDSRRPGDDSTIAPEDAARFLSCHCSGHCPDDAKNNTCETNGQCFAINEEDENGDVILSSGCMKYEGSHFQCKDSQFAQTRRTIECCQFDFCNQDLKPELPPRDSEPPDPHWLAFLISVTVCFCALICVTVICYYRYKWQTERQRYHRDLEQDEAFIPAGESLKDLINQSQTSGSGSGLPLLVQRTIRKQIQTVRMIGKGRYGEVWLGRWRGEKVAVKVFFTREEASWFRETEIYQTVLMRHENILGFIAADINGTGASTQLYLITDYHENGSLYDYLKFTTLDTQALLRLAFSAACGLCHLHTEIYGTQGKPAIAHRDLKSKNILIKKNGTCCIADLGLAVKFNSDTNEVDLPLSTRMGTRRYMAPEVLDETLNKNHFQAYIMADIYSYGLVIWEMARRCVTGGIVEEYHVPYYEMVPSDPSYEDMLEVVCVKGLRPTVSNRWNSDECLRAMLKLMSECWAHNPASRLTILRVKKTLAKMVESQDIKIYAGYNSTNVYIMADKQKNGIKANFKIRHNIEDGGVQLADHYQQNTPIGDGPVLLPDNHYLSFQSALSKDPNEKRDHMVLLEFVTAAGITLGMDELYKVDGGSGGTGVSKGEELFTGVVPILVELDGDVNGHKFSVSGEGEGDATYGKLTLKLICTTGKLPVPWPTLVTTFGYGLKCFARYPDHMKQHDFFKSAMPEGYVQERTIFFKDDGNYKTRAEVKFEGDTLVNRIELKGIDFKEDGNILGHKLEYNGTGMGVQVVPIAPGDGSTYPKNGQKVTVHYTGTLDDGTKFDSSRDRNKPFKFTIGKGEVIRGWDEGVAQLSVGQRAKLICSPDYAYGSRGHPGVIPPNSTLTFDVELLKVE
Source text: To generate the zebrafish ALK3 reporter construct, the Tkv CDS was excised from the TIPF reporter (as constructed in example 1) with PstI and EcoRI to obtain the linearized expression vector without the TGF-beta receptor according to SEQ ID No. 22. In this vector the corresponding full length cDNA encoding the zebrafish ALK3 according to SEQ ID No. 2 was cloned, which was amplified from a custom cDNA library using primers carrying EcoRI (5′primer) and NsiI (3′primer).
Zebrafish assays were performed according to example 1.

Row | Substance | reporter fluorescence versus region of phospho-Smad staining [1] | rescue of lethality of homozygous tkv mutants (homozygous tkv mutants) | behaviour of reporter in zebrafish assays [2]
1 | TIPF reporter: fusion protein of Drosophila Tkv, an inverse pericam core and Drosophila FKBP12 linked by short linkers | coincided with the region of BMP pathway activation | rescue the lethality associated with homozygous tkv mutants to full adult survival | 
2 | zebrafish ALK3 reporter: Inverse Pericam core and Drosophila FKBP12 cassette fused to the zebrafish BMP receptor ALK3 |  |  | behaved like the fly version used in example 1
